Source: patent US7803801B2, “Aminopyridine compounds having Syk inhibitory activity” (Japan Tobacco, Inc., priority 2005, dated 2010)
pIC50: −log10 of the molar value. Counter-ions that a name gives are not always drawn.

Key:
[1] = target: GST-Syk Full Protein (human) (Homo sapiens, UniProt P43405); experiment: Syk kinase inhibition test (HTRF method); assay type: biochemical; conditions: Tables 1-x, compounds A; read-out: sykHTRF ave IC50
Procedure, shortened: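 Human GST-Syk full-length (6.4 nM) phosphorylated biotin-EDPDYEWPSA-NH2 (250 nM) with 100 μM ATP in HEPES pH 7.0/MgCl2 buffer, 2% DMSO, 30 min at room temperature. EDTA stop, then HTRF detection (streptavidin-XL665, Eu anti-phosphotyrosine) after 1 h; 665/620 ratio read.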

[2] = tested on: cultured human mast cells; experiment: Degranulation inhibition test using cultured human mast cells (IgE cross-linking, β-Hexosaminidase release); assay type: cell-based; conditions: Mast cell; Tables 1-x, compounds A; cultured human mast cells; read-out: human degranulation ave. IC50
Procedure, shortened: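 CD34+ cord-blood cells cultured ≥8 weeks with SCF/IL-6/IL-3; FcεRI primed 5 days with rhIL-4 (1 ng/mL) and hIgE (0.5 μg/mL). Compound (0.1% DMSO) preincubated 10 min at 37 °C, then anti-IgE (final 10 μg/mL) 30 min; released β-hexosaminidase read at 405 nm versus total lysate, IC50 (M).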

Row | Compound | pIC50 [1] | pIC50 [2]
1 | CC(=O)N1CCC(N(C)c2ncc(-c3cccc(Nc4cc(Cl)ccn4)n3)s2)CC1 [Compound A-536, 1-[4-(N-{5-[6-(4-chloropyridin-2-ylamino)pyridin-2-yl]thiazol-2-yl}-N-methylamino)piperidin-1-yl]ethanone] | > 7.00 | 6.00 to 7.00
2 | CN(c1ncc(-c2cccc(Nc3cc(Cl)ccn3)n2)s1)C1CCN(C(=O)CO)CC1 [Compound A-537, 1-[4-(N-{5-[6-(4-chloropyridin-2-ylamino)pyridin-2-yl]thiazol-2-yl}-N-methylamino)piperidin-1-yl]-2-hydroxyethanone] | > 7.00 | 6.00 to 7.00
3 | COc1ccnc(Nc2cccc(-c3cnc(N4CC[C@@H](O)C4)s3)n2)c1 [Compound A-538, (R)-1-{5-[6-(4-methoxypyridin-2-ylamino)pyridin-2-yl]thiazol-2-yl}pyrrolidin-3-ol] | > 7.00 | 6.00 to 7.00
4 | O[C@@H]1CCN(c2ncc(-c3cccc(Nc4cc(Cl)ccn4)n3)s2)C1 [Compound A-539, (R)-1-{5-[6-(4-chloropyridin-2-ylamino)pyridin-2-yl]thiazol-2-yl}pyrrolidin-3-ol] | > 7.00 | > 7.00
5 | Cc1ccnc(Nc2cccc(-c3cnc(N4CCC(C)(C(=O)O)CC4)s3)n2)c1 [Compound A-540, 4-methyl-1-{5-[6-(4-methylpyridin-2-ylamino)pyridin-2-yl]thiazol-2-yl}piperidine-4-carboxylic acid] | > 7.00 | 6.00 to 7.00
6 | COc1ccnc(Nc2cccc(-c3cnc(N4CCC[C@H]4C(N)=O)s3)n2)c1 [Compound A-541, (S)-1-{5-[6-(4-methoxypyridin-2-ylamino)pyridin-2-yl]thiazol-2-yl}pyrrolidine-2-carboxamide] | > 7.00 | 6.00 to 7.00
7 | NC(=O)[C@@H]1CCCN1c1ncc(-c2cccc(Nc3cc(Cl)ccn3)n2)s1 [Compound A-542, (S)-1-{5-[6-(4-chloropyridin-2-ylamino)pyridin-2-yl]thiazol-2-yl}pyrrolidine-2-carboxamide] | > 7.00 | > 7.00
8 | CC(=O)c1ccnc(Nc2cccc(-c3cnc(N4CCC(C(N)=O)CC4)s3)n2)c1 [Compound A-543, 1-{5-[6-(4-acetylpyridin-2-ylamino)pyridin-2-yl]thiazol-2-yl}piperidine-4-carboxamide] | > 7.00 | 6.00 to 7.00
9 | Cc1ccnc(Nc2cccc(-c3cnc(N(CCO)CCO)s3)n2)c1 [Compound A-544, 2-(N-(2-hydroxyethyl)-N-{5-[6-(4-methylpyridin-2-ylamino)pyridin-2-yl]thiazol-2-yl}amino)ethanol] | > 7.00 | > 7.00
10 | OCCN(CCO)c1ncc(-c2cccc(Nc3cc(Cl)ccn3)n2)s1 [Compound A-545, 2-[N-{5-[6-(4-chloropyridin-2-ylamino)pyridin-2-yl]thiazol-2-yl}-N-(2-hydroxyethyl)amino]ethanol] | > 7.00 | > 7.00
11 | O=C(O)[C@@H]1CCCN(c2ncc(-c3cccc(Nc4cc(Cl)ccn4)n3)s2)C1 [Compound A-546, (R)-1-{5-[6-(4-chloropyridin-2-ylamino)pyridin-2-yl]thiazol-2-yl}piperidine-3-carboxylic acid] | > 7.00 | 6.00 to 7.00
12 | CC(O)c1ccnc(Nc2cccc(-c3cnc(N4CCC(C(N)=O)CC4)s3)n2)c1 (centres unmarked) [Compound A-547, 1-(5-{6-[4-(1-hydroxyethyl)pyridin-2-ylamino]pyridin-2-yl}thiazol-2-yl)piperidine-4-carboxamide] | > 7.00 | < 6.00
13 | CC1(c2ccnc(Nc3cccc(-c4cnc(N5CC[C@@H](O)C5)s4)n3)c2)OCCO1 [Compound A-548, (R)-1-(5-{6-[4-(2-methyl-[1,3]dioxolan-2-yl)pyridin-2-ylamino]pyridin-2-yl}thiazol-2-yl)pyrrolidin-3-ol] | > 7.00 | 6.00 to 7.00
14 | CC(=O)c1ccnc(Nc2cccc(-c3cnc(N4CC[C@@H](O)C4)s3)n2)c1 [Compound A-549, 1-(2-{6-[2-((R)-3-hydroxypyrrolidin-1-yl)thiazol-5-yl]pyridin-2-ylamino}pyridin-4-yl)ethanone] | > 7.00 | 6.00 to 7.00
15 | Cc1ccnc(Nc2cccc(-c3cnc(N4CCN(C(=O)CCC(=O)O)CC4)s3)n2)c1 [Compound A-551, 4-(4-{5-[6-(4-methylpyridin-2-ylamino)pyridin-2-yl]thiazol-2-yl}piperazin-1-yl)-4-oxobutyric acid] | > 7.00 | < 6.00
16 | O=C(NO)[C@@H]1CCCN(c2ncc(-c3cccc(Nc4cc(Cl)ccn4)n3)s2)C1 [Compound A-552, N-hydroxy-(R)-1-{5-[6-(4-chloropyridin-2-ylamino)pyridin-2-yl]thiazol-2-yl}piperidine-3-carboxamide] | > 7.00 | 6.00 to 7.00

Row | Compound | pIC50 [1] | pIC50 [2]
17 | Cc1ccnc(Nc2cccc(-c3cnc(N(C)C4CCN(C(=O)CCC(=O)O)CC4)s3)n2)c1 [Compound A-553, 4-[4-(N-methyl-N-{5-[6-(4-methylpyridin-2-ylamino)pyridin-2-yl]thiazol-2-yl}amino)piperidin-1-yl]-4-oxobutyric acid] | > 7.00 | < 6.00
18 | CC(O)c1ccnc(Nc2cccc(-c3cnc(N4CC[C@@H](O)C4)s3)n2)c1 (stereo partly drawn) [Compound A-554, (R)-1-(5-{6-[4-(1-hydroxyethyl)pyridin-2-ylamino]pyridin-2-yl}thiazol-2-yl)pyrrolidin-3-ol] | > 7.00 | 6.00 to 7.00
19 | Cc1ccnc(Nc2cccc(-c3cnc(N(C)CC(N)=O)s3)n2)c1 [Compound A-556, 2-(N-methyl-N-{5-[6-(4-methylpyridin-2-ylamino)pyridin-2-yl]thiazol-2-yl}amino)acetamide] | > 7.00 | > 7.00
20 | CC1(c2ccnc(Nc3cccc(-c4cnc(N5CCC[C@@H](C(=O)O)C5)s4)n3)c2)OCCO1 [Compound A-558, (R)-1-{5-(6-[4-(2-methyl-[1,3]dioxolan-2-yl)pyridin-2-ylamino]pyridin-2-yl}thiazol-2-yl)piperidine-3-carboxylic acid] | > 7.00 | < 6.00
21 | CC(=O)c1ccnc(Nc2cccc(-c3cnc(N4CCC[C@@H](C(=O)O)C4)s3)n2)c1 [Compound A-560, (R)-1-{5-[6-(4-acetylpyridin-2-ylamino)pyridin-2-yl]thiazol-2-yl}piperidine-3-carboxylic acid] | > 7.00 | 6.00 to 7.00
22 | CC(=O)c1ccnc(Nc2cccc(-c3cnc(N4CCC[C@H]4C(N)=O)s3)n2)c1 [Compound A-561, (S)-1-{5-[6-(4-acetylpyridin-2-ylamino)pyridin-2-yl]thiazol-2-yl}pyrrolidine-2-carboxamide] | > 7.00 | 6.00 to 7.00
23 | OCC1CCN(c2ncc(-c3cccc(Nc4cc(Cl)ccn4)n3)s2)C1 (centres unmarked) [Compound A-562, (1-{5-[6-(4-chloropyridin-2-ylamino)pyridin-2-yl]thiazol-2-yl}pyrrolidin-3-yl)methanol] | > 7.00 | > 7.00
24 | CC(=O)N1CC[C@@H](N(C)c2ncc(-c3cccc(Nc4cc(C)ccn4)n3)s2)C1 [Compound A-563, 1-[(R)-3-(N-methyl-N-{5-[6-(4-methylpyridin-2-ylamino)pyridin-2-yl]thiazol-2-yl}amino)pyrrolidin-1-yl]ethanone] | > 7.00 | 6.00 to 7.00
25 | CC(=O)c1ccnc(Nc2cccc(-c3cnc(N4CCC[C@H]4C(=O)O)s3)n2)c1 [Compound A-564, (S)-1-{5-[6-(4-acetylpyridin-2-ylamino)pyridin-2-yl]thiazol-2-yl}pyrrolidine-2-carboxylic acid dihydrochloride] | > 7.00 | < 6.00
26 | CC1(c2ccnc(Nc3cccc(-c4cnc(N5CCC[C@@H](C(N)=O)C5)s4)n3)c2)OCCO1 [Compound A-565, (R)-1-(5-{6-[4-(2-methyl-[1,3]dioxolan-2-yl)pyridin-2-ylamino]pyridin-2-yl}thiazol-2-yl)piperidine-3-carboxamide] | > 7.00 | 6.00 to 7.00
27 | Cc1ccnc(Nc2cccc(-c3cnc(N4CCC[C@@H](CC(=O)O)C4)s3)n2)c1 [Compound A-567, ((S)-1-{5-[6-(4-methylpyridin-2-ylamino)pyridin-2-yl]thiazol-2-yl}piperidin-3-yl)acetic acid] | > 7.00 | 6.00 to 7.00
28 | Cc1ccnc(Nc2cccc(-c3cnc(N(C)CC(=O)N[C@H](C(=O)O)C(C)C)s3)n2)c1 [Compound A-568, (S)-3-methyl-2-[2-(N-methyl-N-{5-[6-(4-methylpyridin-2-ylamino)pyridin-2-yl]thiazol-2-yl}amino)acetylamino]butyric acid dihydrochloride] | > 7.00 | < 6.00
29 | Cc1ccnc(Nc2cccc(-c3cnc(N(C)CC(=O)NCCC(=O)O)s3)n2)c1 [Compound A-570, 3-[2-(N-methyl-N-{5-[6-(4-methylpyridin-2-ylamino)pyridin-2-yl]thiazol-2-yl}amino)acetylamino]propionic acid dihydrochloride] | > 7.00 | < 6.00
30 | Cc1ccnc(Nc2cccc(-c3cnc(N(C)CC(=O)NCC(=O)O)s3)n2)c1 [Compound A-571, [2-(N-methyl-N-{5-[6-(4-methylpyridin-2-ylamino)pyridin-2-yl]thiazol-2-yl}amino)acetylamino]acetic acid dihydrochloride] | > 7.00 | < 6.00
31 | CC1(c2ccnc(Nc3cccc(-c4cnc(N5CCC(CC(=O)O)CC5)s4)n3)c2)OCCO1 [Compound A-572, [1-(5-{6-[4-(2-methyl-[1,3]dioxolan-2-yl)pyridin-2-ylamino]pyridin-2-yl}thiazol-2-yl)piperidin-4-yl]acetic acid dihydrochloride] | > 7.00 | 6.00 to 7.00
